Test results reported in patent US20230310477A1, “PHARMACEUTICAL COMPOSITION COMPRISING ABELIOPHYLLUM DISTICHUM EXTRACT AS ACTIVE INGREDIENT FOR TREATING ANDROGEN RECEPTOR-RELATED DISEASE” (priority 2020, published 2023).

Tests used:
PI3K [1] = assay: Western blotting of testosterone-induced PI3K expression in prostatic cells; format: cell-based; settings: depending on the concentration of isoquercetin
BPH animal models = assay: Prostate indexes in BPH animal model; format: in vivo, SD rats; settings: 4 weeks
Method: All experiments were conducted in an aseptic environment. Three days after surgical recovery for the BPH-induced group (BPH), testosterone was dissolved in corn oil and then subcutaneously injected daily at 3 mg/kg, inducing BPH. For an Abeliophyllum distichum leaf ethanol extract-administered group (BPH+ADLE), an Abeliophyllum distichum leaf ethanol extract was dissolved in sterile distilled water and orally administered using a zonde at 100 mg/kg for 4 weeks. For a saw palmetto-administered group (BPH+Saw) as a positive control, saw palmetto was dissolved in sterile distilled water and orally administered at 100 mg/kg, and for a finasteride-administered group (BPH+Fi), finasteride was orally administered using a zonde at 1 mg/kg per day for 4 weeks. After the experiment, the rats were sacrificed using zoletil, blood samples were collected through heart puncture, and serum was then separated and stored at −80° C. The prostate was separated and weighed using RNAse-free surgical tools, and stored at −80° C., followed by western blotting.
Meanwhile, isoquercetin (IQ) administration was also performed in the same manner and using the same controls as described above, and for a low concentration-administered group (BPH+IQ1), IQ was dissolved in sterile distilled water and then orally administered at 1 mg/kg, and for a high concentration-administered group (BPH+IQ10), IQ was dissolved in sterile distilled water and then orally administered using a zonde at 10 mg/kg for 4 weeks.

cyclin D1 = assay: Western blotting of cyclin D1 expression in testosterone-treated BPH-1 cells; format: cell-based; settings: testosterone 100 nM, 25, 50 and 100 μM, 24 hours, concentration dependent
5 alpha reductase (5AR2) = assay: Western blotting of testosterone-induced 5AR2 expression in LNCaP cells; format: cell-based
Method: (§3) The LNCaP cells (2×10^6) were seeded in 6-well plates, and treated with 100 nM testosterone propionate (TP, Tokyo Chemical Industry) and 100 μg/mL each of Abeliophyllum distichum leaf hot water (D.W.), ethanol (EtOH), and hexane (Hexane) extracts for 24 hours. Here, a group treated with 1 μg/mL finasteride (Fi), which is an androgen inhibiting drug, was used as a positive control. After finishing the treatment of the cells, an androgenic receptor signaling-inhibitory effect was analyzed using western blotting. First, the cells were lysed in a protein inhibitor cocktail (Sigma)-containing radioimmunoprecipitation assay (RIPA) buffer, and a protein concentration was estimated using a BCA assay, followed by electrophoresis in a 12% SDS polyacrylamide gel. The gel was then transferred to a membrane using Mini Trans-Blot cells (Bio rad). Subsequently, the membrane was treated with primary antibodies at 4° C. for 12 hours. […] Bands were then detected using an Azure c300 imaging system (Azure Biosystems) by chemiluminescence with an HPR substrate (Advansta Inc., San Jose, CA, USA). Band intensities were quantified by setting the area of each sample using ImageJ software (NIH ver. 1.48, USA) and then setting the area of corresponding β-actin in the same manner as used above, and dividing the area of β-actin by the area of each sample.

androgenic receptor (AR) = assay: Western blotting of testosterone-induced AR expression in LNCaP cells; format: cell-based
Method: LNCaP cells were treated with testosterone propionate (TP) to induce androgenic receptor signaling, treated with Abeliophyllum distichum leaf hot water (D.W.), ethanol (EtOH), and hexane (Hexane) extracts, followed by confirming the efficacy of inhibiting the expression of an androgenic receptor (AR, SantaCruz), 5 alpha reductase (5AR2, ABCam), and prostate-specific antigen (PSA, SantaCruz) to compare the inhibitory effect on androgenic receptor signaling-related factors per Abeliophyllum distichum leaf extract LNCaP cells in LNCaP cells. The LNCaP cells (2×10^6) were seeded in 6-well plates, and treated with 100 nM testosterone propionate (TP, Tokyo Chemical Industry) and 100 μg/mL each of Abeliophyllum distichum leaf hot water (D.W.), ethanol (EtOH), and hexane (Hexane) extracts for 24 hours. […] After finishing the treatment of the cells, an androgenic receptor signaling-inhibitory effect was analyzed using western blotting. […] Bands were then detected using an Azure c300 imaging system (Azure Biosystems) by chemiluminescence with an HPR substrate (Advansta Inc., San Jose, CA, USA). Band intensities were quantified by setting the area of each sample using ImageJ software (NIH ver. 1.48, USA) and then setting the area of corresponding β-actin in the same manner as used above, and dividing the area of β-actin by the area of each sample. […]

[2] = test system: steroid receptor coactivator 1 (SRC1); assay: Western blotting of SRC1 in prostate tissue of BPH animal model; format: in vivo, SD rats; settings: oral 1 mg/kg or 10 mg/kg, 4 weeks; depending on intake concentration
Method: (§1) All experiments were conducted in an aseptic environment. Three days after surgical recovery for the BPH-induced group (BPH), testosterone was dissolved in corn oil and then subcutaneously injected daily at 3 mg/kg, inducing BPH. For an Abeliophyllum distichum leaf ethanol extract-administered group (BPH+ADLE), an Abeliophyllum distichum leaf ethanol extract was dissolved in sterile distilled water and orally administered using a zonde at 100 mg/kg for 4 weeks. […]
(§2) For animal experimental groups, protein expression of androgen signaling-related factors, 5α-reductase 2 (5AR2), steroid receptor coactivator 1 (SRC1), an estrogen receptor (ER), and a prostate-specific antigen (PSA), were analyzed. […] Subsequently, bands were then detected using an Azure c300 imaging system (Azure Biosystems) by chemiluminescence with an HPR substrate (Advanta Inc., San Jose, CA, USA). Band intensities were quantified by setting the area of each sample using ImageJ software (NIH ver. 1.48, USA) and then setting the area of corresponding β-actin in the same manner as used above, and dividing the area of β-actin by the area of each sample.

AR = assay: Western blotting of AR in prostate tissue of BPH animal model; format: in vivo, SD rats; settings: oral 1 mg/kg or 10 mg/kg, 4 weeks; depending on intake concentration
PI3K [3] = assay: Western blotting of PI3K expression in testosterone-treated BPH-1 cells; format: cell-based; settings: testosterone 100 nM, 25, 50 and 100 μM, 24 hours, concentration dependent
PCNA = assay: Western blotting of PCNA expression in testosterone-treated BPH-1 cells; format: cell-based; settings: testosterone 100 nM, 25, 50 and 100 μM, 24 hours, concentration dependent
[4] = test system: prostate-specific antigen (PSA); assay: Western blotting of testosterone-induced PSA expression in LNCaP cells; format: cell-based; settings: compared among IQ, Rutin, CA and IR
Method: as §3

5α-reductase 2 (5AR2) = assay: Western blotting of 5AR2 in prostate tissue of BPH animal model; format: in vivo, SD rats; settings: oral 1 mg/kg or 10 mg/kg, 4 weeks; depending on intake concentration
Method: as §1, §2

[5] = oral 1 mg/kg or 10 mg/kg, compared to the BPH-induced model
[6] = compared among IQ, Rutin, CA and IR
[7] = testosterone-induced, depending on the concentration of isoquercetin

## O=c1c(O[C@@H]2O[C@H](CO)[C@@H](O)[C@H](O)[C@H]2O)c(-c2ccc(O)c(O)c2)oc2cc(O)cc(O)c12 [isoquercetin, 3-(β-D-glucopyranosyloxy)-3′,4′,5,7-tetrahydroxyflavone]
PI3K [1]
  expression of PI3K: significantly reduced
BPH animal models; oral 1 mg/kg and 10 mg/kg, depending on concentration
  prostate index: lowered
BPH animal models; [5]
  prostate weight: significantly reduced
  ratio of the prostate weight to a body weight: significantly decreased
Cyclin D1
  cyclin D1 expression: significantly reduced
5 alpha reductase (5AR2); [6]
  effect on testosterone-induced 5AR2 expression level among four functional ingredient candidates: most excellent effect
5 alpha reductase (5AR2); [7]
  expression of 5AR2: significantly reduced
Androgenic receptor (AR); [6]
  effect on testosterone-induced AR expression level among four functional ingredient candidates: most excellent effect
Androgenic receptor (AR); [7]
  expression of AR: significantly reduced
[2]
  expression level of SRC-1 in prostate tissue: reduced
AR
  expression level of AR in prostate tissue: reduced
PI3K [3]
  PI3K expression: significantly reduced
PCNA
  PCNA expression: significantly reduced
[4]
  effect on testosterone-induced PSA expression level among four functional ingredient candidates: most excellent effect
5α-reductase 2 (5AR2)
  expression level of 5AR2 in prostate tissue: reduced
